Target: T1, hPFK-P (Homo sapiens, UniProt Q01813)
T1 construct: made in house; host or cells: PFK-deficient Saccharomyces cerevisiae
T1 sequence (Q01813 1-784): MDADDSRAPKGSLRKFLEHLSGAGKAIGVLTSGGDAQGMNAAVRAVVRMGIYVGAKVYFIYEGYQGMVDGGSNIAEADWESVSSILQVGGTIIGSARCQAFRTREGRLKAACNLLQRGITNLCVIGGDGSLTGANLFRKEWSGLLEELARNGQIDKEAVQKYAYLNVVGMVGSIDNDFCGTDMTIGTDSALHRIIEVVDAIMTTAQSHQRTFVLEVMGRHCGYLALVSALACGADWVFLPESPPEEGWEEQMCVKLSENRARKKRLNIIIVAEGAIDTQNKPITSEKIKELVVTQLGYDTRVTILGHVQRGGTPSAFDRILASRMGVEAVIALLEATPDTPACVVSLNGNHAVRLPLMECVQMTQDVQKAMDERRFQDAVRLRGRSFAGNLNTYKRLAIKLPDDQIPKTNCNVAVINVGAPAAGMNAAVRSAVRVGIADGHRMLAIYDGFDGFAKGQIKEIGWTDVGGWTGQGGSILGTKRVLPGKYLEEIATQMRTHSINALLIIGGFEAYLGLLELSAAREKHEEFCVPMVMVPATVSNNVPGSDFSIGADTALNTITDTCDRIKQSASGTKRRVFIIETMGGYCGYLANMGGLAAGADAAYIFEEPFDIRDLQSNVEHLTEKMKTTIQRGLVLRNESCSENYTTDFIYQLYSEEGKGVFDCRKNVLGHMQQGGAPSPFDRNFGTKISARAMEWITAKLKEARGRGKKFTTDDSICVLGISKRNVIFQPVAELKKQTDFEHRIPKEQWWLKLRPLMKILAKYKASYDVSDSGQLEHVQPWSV
Test: ALDO/G3PDH/TIM linked enzyme assay, human PFK-P
Format: biochemical
Settings: aldolase/TIM linked assay, 25 °C; highest concentration 100 µM
Method: Enzyme activity was measured using an aldolase/TIM linked assay at 25 °C. […] Experiments were carried out in duplicate. Data are presented as mean values ± standard deviation. […] Source data are provided as a Source Data File. b Kill time of CTCB-405 compared with existing HAT drugs in the clinic. […] Over 99% of trypanosomes were killed in under 30 min compared with much slower killing rates for the other drugs. The points on the graph for CTCB-405 were determined from two independent biological replicate experiments with each time point measured twice (using duplicate technical replicates). The ESD for each point on the graph is between 0.7 and 1.4%. For drugs in clinical use each point on the graph is the average of two technical replicates from one experiment (with a maximum difference of 7.8% for any of the points). Source data are provided as a Source Data File.
In the PFK/PYK/LDH assay, the linked PYK activity acts to convert the ADP produced by PFK back to ATP. As ATP is an inhibitor of human PFK (but not TbPFK) at concentrations higher than ~0.5 mM the regeneration of ATP is likely to affect the assay readout. […] TIM interconverts GA3P and DHAP, and DHAP is reduced to glycerol 3-phosphate by G3PD, alongside the oxidation of NADH to NAD^+, which was measured by observing the change in UV absorbance at 340 nm for 10 minutes at 25° C using a Spectramax© M5 Multimode plate reader. […]

## CN(C)CCn1ccc2c(ccn2Cc2ccc(Cl)c(Cl)c2)c1=O [CTCB-405, 1-[(3,4-Dichlorophenyl)methyl]-5-[2-(dimethylamino)ethyl] pyrrolo[3,2-c]pyridin-4-one]
  inhibition of hPFK-P: no significant inhibition
